Data as given in patent US6737383B1, “Herbicidal oxadiazolidines” (priority 1999, dated 2004).

Legend:
bamyardgrass = experiment: Test B flood test barnyardgrass; assay type: in vivo, Echinochloa crus-galli; settings: for Plant response rating, Barnyardgrass (0 to 10 scale, 0 is no effect, 10 is complete control) / Barnyardgrass plant response rating (0 to 10 scale, 0 is no effect, 10 is complete control): visual evaluation after twelve to sixteen days; for Barnyardgrass plant response rating (0 to 10 scale, 0 is no effect, 10 is complete control): under heading Pre-emergence
How it was run: (§1)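 Each value is a visual injury score relative to controls, with 10 meaning complete control and 0 no effect. Evaluation took place twelve to sixteen days after the 2-leaf-stage plants were treated and kept in the greenhouse.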

rice = experiment: Test B flood test rice; assay type: in vivo, Oryza sativa; settings: for Rice plant response rating (0 to 10 scale, 0 is no effect, 10 is complete control): under heading Pre-emergence; for Rice plant response rating (0 to 10 scale, 0 is no effect, 10 is complete control) / Plant response rating, Rice (0 to 10 scale, 0 is no effect, 10 is complete control): visual evaluation after twelve to sixteen days
How it was run: as §1

pigweed = experiment: Test B pre/postemergence pigweed; assay type: in vivo, Amaranthus retroflexus
How it was run: (§2)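 Response is a visual 0-to-10 score relative to untreated plants, where 0 means no effect and 10 means complete control, taken twelve to sixteen days after application. Treatments went onto soil at planting and onto foliage of 1- to 4-leaf plants, using a surfactant-containing non-phytotoxic solvent.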

bedstraw = experiment: Test B pre/postemergence bedstraw; assay type: in vivo, Galium aparine
How it was run: as §2

[1] = Rate 62 g/ha, flood test species, Pre-emergence
[2] = Rate 125 g/ha, flood test species
[3] = Rate 250 g/ha, Pre-emergence (flood test species), scale 0 to 10, 0 is no effect, 10 is complete control
[4] = Rate 500 g/ha, Pre-emergence section of Table B, 0 to 10 scale (0 no effect, 10 complete control)
[5] = Postemergence, Rate 500 g/ha, scale of 0 to 10 where 0 is no effect and 10 is complete control
[6] = Preemergence, Rate 62 g/ha, scale 0 to 10 (0 no effect, 10 complete control)
[7] = Preemergence, Rate 125 g/ha, scale 0 to 10, 0 is no effect, 10 is complete control
[8] = Preemergence, Rate 500 g/ha, scale of 0 to 10 where 0 is no effect and 10 is complete control
[9] = Rate 250 g/ha, Postemergence, scale of 0 to 10 where 0 is no effect and 10 is complete control
[10] = Pre-emergence, Rate 1000 g/ha, scale 0 to 10 (0 no effect, 10 complete control)
[11] = Rate 500 g/ha, Pre-emergence, flood test species, scale 0 to 10 (0 no effect, 10 complete control)
[12] = Postemergence, Rate 250 g/ha, scale 0 to 10
[13] = Preemergence, Rate 125 g/ha, scale of 0 to 10 where 0 is no effect and 10 is complete control
[14] = Preemergence, Rate 250 g/ha, scale 0 to 10, 0 is no effect, 10 is complete control
[15] = Preemergence, Rate 500 g/ha, scale 0 to 10, 0 is no effect, 10 is complete control
[16] = Rate 125 g/ha, Postemergence, scale 0 to 10, 0 is no effect, 10 is complete control
[17] = Rate 1000 g/ha, Preemergence, scale 0 to 10 (0 no effect, 10 complete control)
[18] = Postemergence section (flood test species), Rate 500 g/ha, scale of 0 to 10 where 0 is no effect and 10 is complete control
[19] = Rate 62 g/ha, Postemergence (flood test species), scale of 0 to 10 where 0 is no effect and 10 is complete control
[20] = flood test species, listed under Postemergence, Rate 250 g/ha, scale 0 to 10, 0 is no effect, 10 is complete control
[21] = Preemergence, Rate 62 g/ha, scale of 0 to 10 where 0 is no effect and 10 is complete control
[22] = Rate 62 g/ha, Postemergence, scale 0 to 10, 0 no effect, 10 complete control
[23] = Postemergence block (flood test species), Rate 250 g/ha, scale 0 to 10
[24] = Rate 125 g/ha, Postemergence section (flood test species), scale 0 to 10, 0 is no effect, 10 is complete control

SMILES | Plant response rating, Barnyardgrass (0 to 10 scale, 0 is no effect, 10 is complete control) (bamyardgrass; [1]) | Barnyardgrass plant response rating (0 to 10 scale, 0 is no effect, 10 is complete control) (bamyardgrass; [2]) | Barnyardgrass plant response rating (bamyardgrass; [3]) | Barnyardgrass plant response rating (bamyardgrass; [11]) | Rice plant response rating (0 to 10 scale, 0 is no effect, 10 is complete control) (rice; [2]) | Rice plant response rating (rice; [3]) | Rice plant response rating (rice; [11]) | Redroot pigweed plant response rating (pigweed; [12]) | Redroot pigweed plant response rating (pigweed; [5]) | Plant response rating, Redroot pigweed (pigweed; [13]) | Redroot pigweed plant response rating (pigweed; [14]) | Redroot pigweed plant response rating (pigweed; [15]) | Redroot pigweed plant response rating (pigweed; [16]) | Barnyardgrass plant response rating (bamyardgrass; [18]) | Barnyardgrass plant response rating (bamyardgrass; [19]) | Rice plant response rating (rice; [18]) | Plant response rating, Redroot pigweed (pigweed; [6]) | Plant response rating, Rice (0 to 10 scale, 0 is no effect, 10 is complete control) (rice; [1]) | other results
CCCCCCn1c(=O)on(C(=O)N(c2ccccc2)C(C)C)c1=O [Compound 558] | 0 | 0 | 2 | – | – | – | – | – | – | – | – | – | – | – | – | – | – | – | Barnyardgrass plant response rating (bamyardgrass; [4]): 6; Rice plant response rating (rice; [4]): 0; Redroot pigweed plant response rating (pigweed; Postemergence, Rate 62 g/ha, scale of 0 to 10, 0 is no effect, 10 is complete control): 0; Plant response rating, Redroot pigweed (pigweed; [5]): 0; Redroot pigweed plant response rating (pigweed; [6]): 0; Redroot pigweed plant response rating (pigweed; [7]): 0; Redroot pigweed plant response rating (0 to 10 scale) (pigweed; Preemergence, Rate 250 g/ha): 2; Redroot pigweed plant response rating (pigweed; [8]): 2; Plant response rating, Redroot pigweed (pigweed; [9]): 0; Bedstraw plant response rating (bedstraw; Postemergence, Rate 125 g/ha, scale 0 to 10, 0 is no effect, 10 is complete control): 0; Bedstraw plant response rating (bedstraw; [6]): 0; Bedstraw plant response rating (bedstraw; [7]): 0; Bedstraw plant response rating (0 to 10 scale) (bedstraw; Preemergence, Rate 250 g/ha): 0; Bedstraw plant response rating (bedstraw; [8]): 0; Plant response rating, Bedstraw (bedstraw; [9]): 0
CCOP(=O)(OCC)C(C)n1c(=O)on(C(=O)N(c2ccccc2)C(C)C)c1=O (stereo not shown) [Compound 448] | – | 0 | 0 | 0 | 0 | 0 | 0 | 0 | 0 | 0 | 0 | 0 | 0 | – | – | – | – | – | Barnyardgrass plant response rating (bamyardgrass; [10]): 0; Rice plant response rating (rice; [10]): 0; Redroot pigweed plant response rating (pigweed; Postemergence, Rate 1000 g/ha, scale 0 to 10 (0 no effect, 10 complete control)): 0; Plant response rating, Redroot pigweed (pigweed; [17]): 0; Bedstraw plant response rating (bedstraw; [12]): 0; Plant response rating, Bedstraw (bedstraw; [13]): 0; Bedstraw plant response rating (bedstraw; [14]): 0; Bedstraw plant response rating (bedstraw; [15]): 0; Bedstraw plant response rating (bedstraw; [16]): 0; Plant response rating, Bedstraw (bedstraw; [17]): 0
CC(C)N(C(=O)n1oc(=O)n(CCC(F)(F)F)c1=O)c1ccc(F)cc1 [Compound 397] | – | – | – | – | – | – | – | – | 6 | 8 | 10 | 10 | – | 0 | 0 | 0 | 8 | – | Plant response rating, Barnyardgrass (bamyardgrass; Postemergence (flood test), Rate 125 g/ha, scale 0 to 10, 0 is no effect, 10 is complete control): 0; Plant response rating, Barnyardgrass (bamyardgrass; [20]): 0; Rice plant response rating (rice; [19]): 0; Plant response rating, Rice (rice; [20]): 0; Plant response rating, Redroot pigweed (pigweed; Postemergence, Rate 250 g/ha, scale 0 to 10, 0 is no effect, 10 is complete control): 4; Redroot pigweed plant response rating (pigweed; Rate 62 g/ha, Postemergence, scale of 0 to 10 where 0 is no effect and 10 is complete control): 0
CC(C)N(C(=O)n1oc(=O)n(CC(=O)C2CCC2)c1=O)c1ccc(F)cc1 [Compound 640] | 0 | 0 | 0 | – | 0 | 0 | – | – | – | – | – | – | – | – | – | – | – | 0 | Barnyardgrass plant response rating (bamyardgrass; [4]): 0; Rice plant response rating (rice; [4]): 0; Plant response rating, Redroot pigweed (pigweed; Postemergence, Rate 62 g/ha, scale 0 to 10, 0 is no effect, 10 is complete control): 0; Plant response rating, Redroot pigweed (pigweed; Postemergence, Rate 125 g/ha, scale of 0 to 10 where 0 is no effect and 10 is complete control): 0; Redroot pigweed plant response rating (pigweed; Postemergence, Rate 250 g/ha, scale of 0 to 10, 0 is no effect, 10 is complete control): 4; Redroot pigweed plant response rating (pigweed; [21]): 0; Redroot pigweed plant response rating (pigweed; [13]): 0; Plant response rating, Redroot pigweed (pigweed; Preemergence, Rate 250 g/ha, scale 0 to 10 (0 no effect, 10 complete control)): 2; Plant response rating, Redroot pigweed (pigweed; [8]): 7
CCC=CCn1c(=O)on(C(=O)N(c2ccccc2)C(C)C)c1=O [Compound 454] | 0 | 0 | 0 | 0 | 0 | 0 | 0 | 2 | – | 2 | 9 | 10 | 0 | – | – | – | – | 0 | Plant response rating, Redroot pigweed (pigweed; [21]): 0; Redroot pigweed plant response rating (pigweed; [22]): 0
CCN(C(=O)n1oc(=O)n(C2CCCCCC2)c1=O)C1CCCCC1 [Compound 429] | – | – | – | – | – | – | – | 0 | 0 | 0 | 0 | 0 | 0 | 7 | 0 | 0 | 0 | – | Barnyardgrass plant response rating (bamyardgrass; [23]): 1; Barnyardgrass plant response rating (bamyardgrass; [24]): 0; Rice plant response rating (rice; [23]): 0; Rice plant response rating (rice; [24]): 0
C=C[Si](C)(C)Cn1c(=O)on(C(=O)N(c2ccc(Cl)cc2)C(C)C)c1=O [Compound 425] | – | – | – | – | – | – | – | 2 | 2 | 0 | 3 | 3 | 0 | 7 | 0 | 0 | 0 | – | Barnyardgrass plant response rating (bamyardgrass; [23]): 1; Barnyardgrass plant response rating (bamyardgrass; [24]): 0; Rice plant response rating (rice; [23]): 0; Rice plant response rating (rice; [24]): 0
C=CC(OC)n1c(=O)on(C(=O)N(c2ccc(F)cc2)C(C)C)c1=O (stereo not shown) [Compound 452] | 0 | 0 | 0 | 0 | 0 | 0 | 0 | 0 | – | 0 | 0 | 0 | 0 | – | – | – | – | 0 | Plant response rating, Redroot pigweed (pigweed; [21]): 0; Redroot pigweed plant response rating (pigweed; [22]): 0
